Source: article PMC5923123, “In Vitro and In Vivo Efficacy of a Novel and Long-Acting Fungicidal Azole, PC1244, on Aspergillus fumigatus Infection” (Antimicrobial Agents and Chemotherapy, 2018)
Values after ≈ are worked out from the molar mass of the structure shown.

How the values were obtained:
[1] = tested on: A. fumigatus NCPF2010; assay: EUCAST broth microdilution growth inhibition (OD 530 nm, 384-well); format: cell-based; details: Aspergillus fumigatus, strain NCPF2010 (ITC-susceptible), 48 h, range tested 0.002 to 1 μg/ml
Description: (§1) The antifungal activities of the test compounds against A. fumigatus strains (itraconazole [ITC]-susceptible strains NCPF2010, AF294, and AF293; ITC-resistant strains AF72 and AF91) were calculated from growth curves generated by spectrophotometric analysis and compared to the activities against positive and negative controls.

[2] = tested on: A. fumigatus AF72; assay: as above; format: cell-based; details: Aspergillus fumigatus, strain AF72 (ITC-resistant), 48 h
Description: as §1

[3] = tested on: A. fumigatus AF293; assay: as above; format: cell-based; details: Aspergillus fumigatus, strain AF293 (ITC-susceptible), 48 h
Description: as §1

[4] = tested on: A. fumigatus AF294; assay: as above; format: cell-based; details: Aspergillus fumigatus, strain AF294 (ITC-susceptible), 48 h
Description: as §1

[5] = tested on: A. fumigatus AF91; assay: as above; format: cell-based; details: Aspergillus fumigatus, strain AF91 (ITC-resistant), 48 h
Description: as §1

[6] = tested on: A. fumigatus isolates; design: method as in PMID 12202554; details: MFC = lowest dilution yielding less than 3 colonies; cited from earlier work
[7] = tested on: A. fumigatus (ATCC 13073 [strain NIH 5233]); assay: MIC against the strain used in vivo; format: cell-based; details: Aspergillus fumigatus, ATCC13073; strain ATCC 13073; read-out: MIC

IC50 [1] [µg/mL]	IC90 [1] [µg/mL]	IC50 [2] [µg/mL]	IC90 [2] [µg/mL]	IC50 [3] [µg/mL]	IC90 [3] [µg/mL]	IC50 [4] [µg/mL]	IC90 [4] [µg/mL]	IC50 [5] [µg/mL]	IC90 [5] [µg/mL]	SMILES	range of MFCs for inhibition of 90% of isolates tested (MFC90) [6] [µg/mL]	MIC [7] [µg/mL]
0.065 (≈ 0.0595 µM)	> 1	0.065 (≈ 0.0595 µM)	> 1	> 1	> 1	> 1	> 1	0.11 (≈ 0.101 µM)	> 1	CC[C@H](C)C[C@H](C)CCCCCCCCC(=O)N[C@H]1C[C@@H](O)[C@@H](NCCN)NC(=O)[C@@H]2[C@@H](O)CCN2C(=O)[C@H]([C@H](O)CCN)NC(=O)[C@H]([C@H](O)[C@@H](O)c2ccc(O)cc2)NC(=O)[C@@H]2C[C@@H](O)CN2C(=O)[C@H]([C@@H](C)O)NC1=O [Caspofungin, caspofungin]		
0.2 (≈ 0.216 µM)	0.62 (≈ 0.671 µM)	0.12 (≈ 0.13 µM)	0.42 (≈ 0.455 µM)	0.24 (≈ 0.26 µM)	0.85 (≈ 0.92 µM)	0.21 (≈ 0.227 µM)	0.79 (≈ 0.855 µM)	0.28 (≈ 0.303 µM)	0.75 (≈ 0.812 µM)	C[C@@H]1[C@H](O)[C@@H](C)/C=C/C=C/C=C/C=C/C=C/C=C/C=C/[C@H](O[C@@H]2O[C@H](C)[C@@H](O)[C@H](N)[C@@H]2O)C[C@@H]2O[C@](O)(C[C@@H](O)C[C@@H](O)[C@H](O)CC[C@@H](O)C[C@@H](O)CC(=O)O[C@H]1C)C[C@H](O)[C@H]2C(=O)O [Amphotericin B, amphotericin B]		

SMILES	IC50 [1] [µg/mL]	IC90 [1] [µg/mL]	IC50 [2] [µg/mL]	IC90 [2] [µg/mL]	IC50 [3] [µg/mL]	IC90 [3] [µg/mL]	IC50 [4] [µg/mL]	IC90 [4] [µg/mL]	IC50 [5] [µg/mL]	IC90 [5] [µg/mL]	range of MFCs for inhibition of 90% of isolates tested (MFC90) [6] [µg/mL]	MIC [7] [µg/mL]
CCC(C)n1ncn(-c2ccc(N3CCN(c4ccc(OCC5COC(Cn6cncn6)(c6ccc(Cl)cc6Cl)O5)cc4)CC3)cc2)c1=O (centres unmarked) [Itraconazole, itraconazole]	0.037 (≈ 0.0524 µM)	0.054 (≈ 0.0765 µM)	0.31 (≈ 0.439 µM)	> 1	0.032 (≈ 0.0453 µM)	0.23 (≈ 0.326 µM)	0.041 (≈ 0.0581 µM)	0.052 (≈ 0.0737 µM)	0.22 (≈ 0.312 µM)	> 1	0.2 to 4	0.5 (≈ 0.709 µM)
